Results from patent US8865901B2, “Gain-of-function Bcl-2 inhibitors” (priority 2009, dated 2014).
Where “and” joins values, the source holds several entries; their conditions need not be identical. Equal entries are not always repeated. Where two headings read alike, the source gives them in different places.

Columns and labels:
[1] = tested on: TAMH cells overexpressing Bcl-xL (TAMH-Bcl-xL, Tabx2s); experiment: Cytotoxicity / apoptosis induction in TAMH cells overexpressing Bcl-xL; type: cell-based
Description: (§1) To examine the sensitivity of cells over-expressing Bcl-xL to various mitochondrial inhibitors and apoptosis inducers, cell lines over-expressing Bcl-xL were prepared and tested according to Hockenberry et al. U.S. Pat. No. 7,241,804, hereby incorporated by reference in its entirety. Competitive binding of compounds with fluorescent antimycin A3, and competitive binding of compounds with BH3 peptide and Bcl-2. Competitive binding of compounds with BH-3 peptide were also measured using Bcl-xL as previously described. Id.
(§2) Cell lines were grown in RPMI 1640 medium (Gibco, Grand Island, N.Y.) supplemented with 5% fetal bovine serum (Hyclone, Logan, Utah). Also shown is the ratio of TAMH cells expressing Bcl-xL to those expressing A142L (WT:142L). The assay measures the potency of various compounds with respect to inducing apoptosis in these cells.
(§3) The compounds described in Example 2 were tested for their ability to inhibit Bcl-2 gain-of-function in TAMH cells, TAMH cells overexpressing […] (TAMH-Bcl-xL), TAMH cells transfected with Neo vector (Neo), TAMH cells over expressing a variant of Bcl-xL (A142L) using the methods of Example 1. 3-6.
(§4) The effects of the compounds described in Example 8 on TAMH cells, TAMH cells overexpressing Bcl-xL (TAMH-Bcl-xL), TAMH cells transfected with Neo vector (Neo), TAMH cells over expressing a variant of Bcl-xL (A142L) is shown in Table 8
(§5) The effects of the compounds described in Example 10 on TAMH cells, TAMH cells overexpressing Bcl-xL (TAMH-Bcl-xL), TAMH cells transfected with Neo vector (Neo), TAMH cells over expressing a variant of Bcl-xL (A142L) is shown in the following Table 10

[2] = tested on: TAMH cells transfected with Neo vector (Neo); experiment: Cytotoxicity / apoptosis induction in TAMH cells transfected with Neo vector; type: cell-based; conditions: for IC50: read-out: IC50 TAMH Neo
Description: as §1, §2, §3, §4, §5

[3] = Table 10, read-out: IC50 TAMH Bcl-XL
[4] = Table 15, read-out: IC50 TAMH Bcl-XL

Structure (SMILES): CN(Cc1cc(C(C)(C)C)cc(Br)c1O)Cc1cc(C(C)(C)C)cc(Br)c1O [Compound 48881]
- Neo/Bcl-XL ([1]; Table 19): 4.6
- EC50 ([1]; Table 19, read-out: Bcl-XL): 6.1 µM
- EC50 ([2]; Table 19, read-out: Neo): 28 µM

Structure (SMILES): CN(Cc1cc(Cl)cc(Cl)c1O)Cc1c(O)ccc2ccccc12 [Compound 85479]
- Neo/Bcl-XL ([1]; Table 18): 5.8
- EC50 ([1]; Table 18, read-out: Bcl-XL): 2.5 µM
- EC50 ([2]; Table 18, read-out: Neo): 14.5 µM

Structure (SMILES): Cc1cc(O)c(Sc2c(O)cc(C)c(Cl)c2C)c(C)c1Cl [Compound 9875]
- Fold Select. (Neo/Bcl-XL) ([1]; Table 10): 6.3
- IC50 [1, 3]: 0.9 µM
- IC50 ([2]; Table 10): 5.7 µM

Structure (SMILES): CN(C)Cc1cc(Cl)cc(Sc2cc(Cl)cc(CN(C)C)c2O)c1O [Compound 62419]
- Fold Select. (Neo/Bcl-XL) ([1]; Table 10): 1.8
- IC50 [1, 3]: 20 µM
- IC50 ([2]; Table 10): 36.1 µM

Structure (SMILES): O=C(/N=C/c1cc(Br)cc(Br)c1O)c1ccc(C(F)(F)F)cn1 [Compound 0298]
- EC50 ([1]; Table 3, TAMH cells overexpressing Bcl-xL (Tabx2s), read-out: 2S EC50): 2.3 µM
- EC50 ([2]; Table 3, TAMH Neo cells, read-out: Neo EC50): 13 µM

Structure (SMILES): Oc1c(Cl)cc(Cl)cc1Sc1cc(Cl)cc(Cl)c1O [Compound 9872]
- Fold Select. (Neo/Bcl-XL) ([1]; Table 10): 3.3
- IC50 [1, 3]: 2.3 µM
- IC50 ([2]; Table 10): 7.5 µM

Structure (SMILES): CN(C)Cc1cc(Cl)cc(Cc2cc(Cl)cc(CN(C)C)c2O)c1O.Cl [Compound 39242]
- Fold Select. (Neo/Bcl-XL) ([1]; Table 11): 0

Structure (SMILES): CN(Cc1cc(Br)cc(Br)c1O)Cc1c(O)ccc2ccccc12 [Compound 88852]
- Neo/Bcl-XL ([1]; Table 18): 5.8
- EC50 ([1]; Table 18, read-out: Bcl-XL): 3.7 µM
- EC50 ([2]; Table 18, read-out: Neo): 21.5 µM

Structure (SMILES): O=S(=O)(c1cc(Cl)ccc1O)c1cc(Cl)ccc1O [Compound 406932]
- Fold Select. (Neo/Bcl-XL) ([1]; Table 10): 4.4
- IC50 [1, 3]: 13.6 µM
- Fold Selectivity (Neo/Bcl-XL) ([1]; Table 15): 4.4
- IC50 [1, 4]: 13.6 µM
- IC50 ([2]; Table 10): 57.2 µM
- IC50 ([2]; Table 15): 57.2 µM

Structure (SMILES): Cc1cc(Cc2cc(C)cc(C(C)(C)C)c2O)c(O)c(C(C)(C)C)c1 [Compound 7781]
- Fold Select. (Neo/Bcl-XL) ([1]; Table 10): 2.8
- IC50 [1, 3]: 1.6 µM
- IC50 ([2]; Table 10): 4.5 µM

Structure (SMILES): Cc1cc(C)c(O)c(CNCc2ccccc2)c1 [Compound 47911]
- EC50 ([1]; Mus musculus, TAMH, Table 8, read-out: TAMH Bcl-xL): 4.1 µM
- EC50 ([1]; Mus musculus, TAMH, Table 20, read-out: Bcl-XL): 4.1 µM
- Neo/Bcl-xL ([1]; Table 8, selectivity ratio): 7.8
- Neo/Bcl-XL ([1]; Table 20): 7.8
- EC50 ([2]; Mus musculus, TAMH, Table 8, read-out: TANH Neo): 31.9 µM
- EC50 ([2]; Mus musculus, TAMH, Table 20, read-out: Neo): 31.9 µM

Structure (SMILES): OCc1cc(Cl)cc(Cc2cc(Cl)cc(Cc3cc(Cl)cc(CO)c3O)c2O)c1O [Compound 48445]
- Fold Select. (Neo/Bcl-xL) ([1]; Table 13): 2.5
- IC50 ([1]; Table 13, read-out: IC50 TAMH Bcl-xL): 1.8 µM
- IC50 ([2]; Table 13): 4.5 µM

Structure (SMILES): O=[N+]([O-])c1ccc(S(=O)(=O)C2CCCCC2Cl)c([N+](=O)[O-])c1 (stereo not shown) [Compound 405645]
- Fold Selectivity (Neo/Bcl-XL) ([1]; Table 15): 2.1
- IC50 [1, 4]: 2.9 µM
- IC50 ([2]; Table 15): 6.1 µM

Structure (SMILES): COc1ccc(C)cc1Cc1cc(C)cc(Cc2cc(C)ccc2O)c1OC [Compound 0036]
- EC50 ([1]; Table 5, TAMH cells overexpressing Bcl-xL (Tabx2s), read-out: 2S EC50): 1.9 µM
- EC50 ([2]; Table 5, TAMH Neo cells, read-out: Neo EC50): 17.5 µM

Structure (SMILES): [O-][S+](c1cc(Cl)ccc1O)c1cc(Cl)ccc1O [Compound 24019]
- Fold Select. (Neo/Bcl-XL) ([1]; Table 10): 5.7
- IC50 [1, 3]: 5.6 µM
- IC50 ([2]; Table 10): 32.2 µM

Structure (SMILES): O=[N+]([O-])c1ccc(S(=O)(=O)Cc2ccccc2)c([N+](=O)[O-])c1 [Compound 122657]
- Fold Selectivity (Neo/Bcl-XL) ([1]; Table 15): 3.9
- IC50 [1, 4]: 3.5 µM
- IC50 ([2]; Table 15): 13.5 µM

Structure (SMILES): CC(C)c1ccc(Sc2ccc(C(C)C)cc2O)c(O)c1 [Compound 39635]
- Fold Select. (Neo/Bcl-XL) ([1]; Table 10): 1.3
- IC50 [1, 3]: 4.3 µM
- IC50 ([2]; Table 10): 7.8 µM

Structure (SMILES): Cc1cc(Cc2cc(C)cc(C(C)(C)C)c2O)c(O)c(Cc2cc(C)cc(C(C)(C)C)c2O)c1 [Compound 62914]
- Fold Select. (Neo/Bcl-xL) ([1]; Table 13): > 20 and 22.7

Structure (SMILES): Cc1cc(C)c(O)c(Cc2cccc(Cc3cc(C)cc(C)c3O)c2O)c1 [Compound 48168]
- Fold Select. (Neo/Bcl-xL) ([1]; Table 13): 0

Structure (SMILES): COc1ccccc1Cc1ccccc1OC [Compound 78834]
- Fold Select. (Neo/Bcl-XL) ([1]; Table 11): 0

Structure (SMILES): Oc1ccc(Sc2ccc(O)cc2O)c(O)c1 [Compound 59828]
- Fold Select. (Neo/Bcl-XL) ([1]; Table 11): 0

Structure (SMILES): CC(=O)c1cc(Cc2cc(C)cc(C)c2O)c(O)c(Cc2cc(C)cc(C)c2O)c1 [Compound 48705]
- Fold Select. (Neo/Bcl-xL) ([1]; Table 13): 0

Structure (SMILES): O=[N+]([O-])c1ccc(S(=O)(=O)c2ccccc2)c2nonc12 [Compound 0219]
- EC50 ([1]; Table 6, TAMH cells overexpressing Bcl-xL (Tabx2s), read-out: 2S EC50): 7.6 µM

Structure (SMILES): Cc1cc(O)c(O)c(Oc2cc(C)cc(O)c2O)c1 [Compound 330927]
- Fold Select. (Neo/Bcl-XL) ([1]; Table 10): 5
- IC50 [1, 3]: 19.8 µM
